US10669290B2, “Beta-lactamase inhibitors” (priority 2012, dated 2020)

Key:
Assay type in all cases: cell-based
P. aerug. Ps296 VIM-2 = assay: Broth microdilution MIC, P. aeruginosa Ps296; conditions: Pseudomonas aeruginosa; fixed meropenem 4 μg/mL, CAMHB, 16-20 hours 37° C.; read-out: MIC of exemplary compounds in presence of fixed β-lactams, Fixed Mero, P. aerug. Ps296 VIM-2
Procedure, shortened: (§1)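 MIC of the test compound was read by eye after 16-20 h at 37° C, with inoculation following CLSI broth microdilution. The compound ran 32 to 0.25 μg/ml final in 2-fold steps in cation-adjusted Mueller Hinton broth, overlaid with a beta-lactam held static at 4 μg/ml final.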

K.P. A-1797 KPC-2 VIM-4 = assay: Broth microdilution MIC, K. pneumoniae A-1797; conditions: Klebsiella pneumoniae; fixed meropenem 4 μg/mL, CAMHB, 16-20 hours 37° C.; read-out: MIC of exemplary compounds in presence of fixed β-lactams, Fixed Mero, K.P. A-1797 KPC-2 VIM-4
S. aureus MSSA-7 PC-1 = assay: Broth microdilution MIC, S. aureus MSSA-7; conditions: Staphylococcus aureus, fixed piperacillin 4 μg/mL, CAMHB, 16-20 hours 37° C., read-out: MIC of exemplary compounds in presence of fixed β-lactams, Fixed Pip, S. aureus MSSA-7 PC-1
E. coli ESBL4 CTX-M-15 = assay: Broth microdilution MIC, E. coli ESBL4; conditions: Escherichia coli, ESBL4CTXM15; fixed ceftazidime 4 μg/mL, CAMHB, 16-20 hours 37° C.; read-out: MIC of exemplary compounds in presence of fixed β-lactams, Fixed CAZ, E. coli ESBL4 CTX-M-15
Procedure, shortened: as §1

E. cl 144200 p99 AmpC = assay: Broth microdilution MIC, E. cloacae 144200; conditions: Enterobacter cloacae; fixed ceftazidime 4 μg/mL, CAMHB, 16-20 hours 37° C.; read-out: MIC of exemplary compounds in presence of fixed β-lactams, Fixed CAZ, E. cl 144200 p99 AmpC
Procedure, shortened: as §1

K.P. 156319 KPC-3 = assay: Broth microdilution MIC, K. pneumoniae 156319; conditions: Klebsiella pneumoniae; fixed meropenem 4 μg/mL, CAMHB, 16-20 hours 37° C.; read-out: MIC of exemplary compounds in presence of fixed β-lactams, Fixed Mero, K.P. 156319 KPC-3

Row | SMILES | MIC (P. aerug. Ps296 VIM-2) | MIC (K.P. A-1797 KPC-2 VIM-4) | MIC (S. aureus MSSA-7 PC-1) | MIC (E. coli ESBL4 CTX-M-15) | MIC (E. cl 144200 p99 AmpC) | MIC (K.P. 156319 KPC-3)
1 | C[C@H](N)CN[C@H]1CC[C@H](CC(=O)N[C@H]2Cc3cccc(C(=O)O)c3OB2O)CC1 [Example 53, (R)-3-(2-(trans-4-((S)-2-aminopropylamino)cyclohexyl)acetamido)-2-hydroxy-3,4-dihydro-2H-benzo[e][1,2]oxaborinine-8-carboxylic acid] | < 4 µg/mL | < 4 µg/mL | < 4 µg/mL | < 4 µg/mL | < 4 µg/mL | < 4 µg/mL
2 | COC(=O)NCCN[C@H]1CC[C@H](CC(=O)N[C@H]2Cc3cccc(C(=O)O)c3OB2O)CC1 [Example 54, (R)-2-hydroxy-3-(2-(trans-4-(2-(methoxycarbonylamino)ethylamino)cyclohexyl)acetamido)-3,4-dihydro-2H-benzo[e][1,2]oxaborinine-8-carboxylic acid] | < 4 µg/mL | 8 to 32 µg/mL | < 4 µg/mL | < 4 µg/mL | < 4 µg/mL | < 4 µg/mL
3 | NCCNC1CC(CC(=O)N[C@H]2Cc3cccc(C(=O)O)c3OB2O)C1 (stereo partly drawn) [Example 55, (R)-3-(2-(3-(2-aminoethylamino)cyclobutyl)acetamido)-2-hydroxy-3,4-dihydro-2H-benzo[e][1,2]oxaborinine-8-carboxylic acid] | < 4 µg/mL | < 4 µg/mL | < 4 µg/mL | < 4 µg/mL | < 4 µg/mL | < 4 µg/mL
4 | NC1CC(CC(=O)N[C@H]2Cc3cccc(C(=O)O)c3OB2O)C1 (stereo partly drawn) [Example 56, (R)-3-(2-(3-aminocyclobutyl)acetamido)-2-hydroxy-3,4-dihydro-2H-benzo[e][1,2]oxaborinine-8-carboxylic acid] | < 4 µg/mL | < 4 µg/mL | < 4 µg/mL | < 4 µg/mL | < 4 µg/mL | < 4 µg/mL
5 | NCCNC(=O)NCCN(C(=O)NCCN)C1CC(CC(=O)N[C@H]2Cc3cccc(C(=O)O)c3OB2O)C1 (stereo partly drawn) [Example 57, (R)-3-(2-(3-(3-(2-aminoethyl)-1-(2-(3-(2-aminoethyl)ureido)ethyl)ureido)cyclobutyl)acetamido)-2-hydroxy-3,4-dihydro-2H-benzo[e][1,2]oxaborinine-8-carboxylic acid] | < 4 µg/mL | 8 to 32 µg/mL | < 4 µg/mL | < 4 µg/mL | < 4 µg/mL | < 4 µg/mL
6 | NCCNC(=O)NC1CC(CC(=O)N[C@H]2Cc3cccc(C(=O)O)c3OB2O)C1 (stereo partly drawn) [Example 58, (R)-3-(2-(3-(3-(2-aminoethyl)ureido)cyclobutyl)acetamido)-2-hydroxy-3,4-dihydro-2H-benzo[e][1,2]oxaborinine-8-carboxylic acid] | < 4 µg/mL | < 4 µg/mL | < 4 µg/mL | < 4 µg/mL | < 4 µg/mL | < 4 µg/mL
7 | NCCNC(=O)N[C@H]1CC[C@H](CC(=O)N[C@H]2Cc3cccc(C(=O)O)c3OB2O)CC1 [Example 59, (R)-3-(2-(trans-4-(3-(2-aminoethyl)ureido)cyclohexyl)acetamido)-2-hydroxy-3,4-dihydro-2H-benzo[e][1,2]oxaborinine-8-carboxylic acid] | < 4 µg/mL | 8 to 32 µg/mL | < 4 µg/mL | < 4 µg/mL | < 4 µg/mL | < 4 µg/mL

The remaining lines, values ahead:

Row | MIC (P. aerug. Ps296 VIM-2) | MIC (K.P. A-1797 KPC-2 VIM-4) | MIC (S. aureus MSSA-7 PC-1) | MIC (E. coli ESBL4 CTX-M-15) | MIC (E. cl 144200 p99 AmpC) | MIC (K.P. 156319 KPC-3) | SMILES
8 | < 4 µg/mL | < 4 µg/mL | < 4 µg/mL | < 4 µg/mL | < 4 µg/mL | < 4 µg/mL | NCCCN[C@H]1CC[C@H](CC(=O)N[C@H]2Cc3cccc(C(=O)O)c3OB2O)CC1 [Example 60, (R)-3-(2-(trans-4-(3-aminopropylamino)cyclohexyl)acetamido)-2-hydroxy-3,4-dihydro-2H-benzo[e][1,2]oxaborinine-8-carboxylic acid]
9 | < 4 µg/mL | < 4 µg/mL | < 4 µg/mL | < 4 µg/mL | < 4 µg/mL | < 4 µg/mL | O=C(C[C@H]1CC[C@H](NCCNCCO)CC1)N[C@H]1Cc2cccc(C(=O)O)c2OB1O [Example 61, (R)-2-hydroxy-3-(2-(trans-4-(2-(2-hydroxyethylamino)ethylamino)cyclohexyl)acetamido)-3,4-dihydro-2H-benzo[e][1,2]oxaborinine-8-carboxylic acid]
10 | 8 to 32 µg/mL | < 4 µg/mL | < 4 µg/mL | < 4 µg/mL | < 4 µg/mL | < 4 µg/mL | C[C@H](N)CNCCN[C@H]1CC[C@H](CC(=O)N[C@H]2Cc3cccc(C(=O)O)c3OB2O)CC1 [Example 62, (R)-3-(2-(trans-4-(2-((S)-2-aminopropylamino)ethylamino)cyclohexyl)acetamido)-2-hydroxy-3,4-dihydro-2H-benzo[e][1,2]oxaborinine-8-carboxylic acid]
11 | < 4 µg/mL | < 4 µg/mL | < 4 µg/mL | < 4 µg/mL | < 4 µg/mL | < 4 µg/mL | CN(CCN)[C@H]1CC[C@H](CC(=O)N[C@H]2Cc3cccc(C(=O)O)c3OB2O)CC1 [Example 63, (R)-3-(2-(trans-4-((2-aminoethyl)(methyl)amino)cyclohexyl)acetamido)-2-hydroxy-3,4-dihydro-2H-benzo[e][1,2]oxaborinine-8-carboxylic acid]
12 | < 4 µg/mL | < 4 µg/mL | < 4 µg/mL | < 4 µg/mL | < 4 µg/mL | < 4 µg/mL | CNCCN[C@H]1CC[C@H](C(CO)C(=O)N[C@H]2Cc3cccc(C(=O)O)c3OB2O)CC1 (stereo partly drawn) [Example 64, (R)-2-hydroxy-3-(3-hydroxy-2-(trans-4-(2-(methylamino)ethylamino)cyclohexyl)propanamido)-3,4-dihydro-2H-benzo[e][1,2]oxaborinine-8-carboxylic acid]
13 | 8 to 32 µg/mL | < 4 µg/mL | < 4 µg/mL | < 4 µg/mL | < 4 µg/mL | < 4 µg/mL | N[C@@H](CO)CN[C@H]1CC[C@H](CC(=O)N[C@H]2Cc3cccc(C(=O)O)c3OB2O)CC1 [Example 65, (R)-3-(2-(trans-4-((R)-2-amino-3-hydroxypropylamino)cyclohexyl)acetamido)-2-hydroxy-3,4-dihydro-2H-benzol[e][1,2]oxaborinine-8-carboxylic acid]
14 | 8 to 32 µg/mL | 8 to 32 µg/mL | < 4 µg/mL | < 4 µg/mL | < 4 µg/mL | < 4 µg/mL | CSCCN[C@H]1CC[C@H](CC(=O)N[C@H]2Cc3cccc(C(=O)O)c3OB2O)CC1 [Example 66, (R)-2-hydroxy-3-(2-(trans-4-(2-(methylthio)ethylamino)cyclohexyl)acetamido)-3,4-dihydro-2H-benzo[e][1,2]oxaborinine-8-carboxylic acid]
15 | < 4 µg/mL | < 4 µg/mL | < 4 µg/mL | < 4 µg/mL | < 4 µg/mL | < 4 µg/mL | N[C@H](CO)CN[C@H]1CC[C@H](CC(=O)N[C@H]2Cc3cccc(C(=O)O)c3OB2O)CC1 [Example 67, (R)-3-(2-(trans-4-((S)-2-amino-3-hydroxypropylamino)cyclohexyl)acetamido)-2-hydroxy-3,4-dihydro-2H-benzol[e][1,2]oxaborinine-8-carboxylic acid]
16 | 8 to 32 µg/mL | 8 to 32 µg/mL | < 4 µg/mL | < 4 µg/mL | < 4 µg/mL | < 4 µg/mL | NCC(=O)N[C@H]1CC[C@H](CC(=O)N[C@H]2Cc3cccc(C(=O)O)c3OB2O)CC1 [Example 68, (R)-3-(2-(trans-4-(2-aminoacetamido)cyclohexyl)acetamido)-2-hydroxy-3,4-dihydro-2H-benzol[e][1,2]oxaborinine-8-carboxylic acid]
